Measurements from PubChem BioAssay (NCI).
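A five-concentration, 48-hour dose response in 96-well plates underlies each endpoint, interpolated linearly between surrounding concentrations. GI50 is the concentration that inhibits growth by half. At the TGI there is no net growth.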

What was measured:
Assay in all cases: growth of human tumour cells (NCI), 48 h
786-0 renal = tested on: 786-0 renal
A498 renal = tested on: A498 renal
A549 NSCLC = tested on: A549 NSCLC
ACHN renal = tested on: ACHN renal
BT-549 breast = tested on: BT-549 breast
CAKI-1 renal = tested on: CAKI-1 renal
CCRF-CEM leukemia = tested on: CCRF-CEM leukemia
COLO 205 colon = tested on: COLO 205 colon
DU-145 prostate = tested on: DU-145 prostate
EKVX NSCLC = tested on: EKVX NSCLC
HCC-2998 colon = tested on: HCC-2998 colon
HCT-116 colon = tested on: HCT-116 colon
HCT-15 colon = tested on: HCT-15 colon
HL-60(TB) leukemia = tested on: HL-60(TB) leukemia
HOP-62 NSCLC = tested on: HOP-62 NSCLC
HOP-92 NSCLC = tested on: HOP-92 NSCLC
HS 578T breast = tested on: HS 578T breast
HT29 colon = tested on: HT29 colon
IGROV1 ovarian = tested on: IGROV1 ovarian
K-562 leukemia = tested on: K-562 leukemia
KM12 colon = tested on: KM12 colon
LOX IMVI melanoma = tested on: LOX IMVI melanoma
M14 melanoma = tested on: M14 melanoma
MALME-3M melanoma = tested on: MALME-3M melanoma
MCF7 breast = tested on: MCF7 breast
MDA-MB-231 breast = tested on: MDA-MB-231 breast
MDA-MB-435 = tested on: MDA-MB-435
MDA-MB-468 breast = tested on: MDA-MB-468 breast
MOLT-4 leukemia = tested on: MOLT-4 leukemia
NCI-H226 lung = tested on: NCI-H226 lung
NCI-H23 lung = tested on: NCI-H23 lung
NCI-H460 lung = tested on: NCI-H460 lung
NCI-H522 lung = tested on: NCI-H522 lung
NCI/ADR-RES ovarian = tested on: NCI/ADR-RES ovarian
OVCAR-3 ovarian = tested on: OVCAR-3 ovarian
OVCAR-4 ovarian = tested on: OVCAR-4 ovarian
OVCAR-5 ovarian = tested on: OVCAR-5 ovarian
OVCAR-8 ovarian = tested on: OVCAR-8 ovarian
PC-3 prostate = tested on: PC-3 prostate
RPMI-8226 leukemia = tested on: RPMI-8226 leukemia
RXF 393 renal = tested on: RXF 393 renal
SF-268 CNS = tested on: SF-268 CNS
SF-295 CNS = tested on: SF-295 CNS
SF-539 CNS = tested on: SF-539 CNS
SK-MEL-2 melanoma = tested on: SK-MEL-2 melanoma
SK-MEL-28 melanoma = tested on: SK-MEL-28 melanoma
SK-MEL-5 melanoma = tested on: SK-MEL-5 melanoma
SK-OV-3 ovarian = tested on: SK-OV-3 ovarian
SN12C renal = tested on: SN12C renal
SNB-19 CNS = tested on: SNB-19 CNS
SNB-75 CNS = tested on: SNB-75 CNS
SR leukemia = tested on: SR leukemia
SW-620 colon = tested on: SW-620 colon
T-47D breast = tested on: T-47D breast
TK-10 renal = tested on: TK-10 renal
U251 CNS = tested on: U251 CNS
UACC-257 melanoma = tested on: UACC-257 melanoma
UACC-62 melanoma = tested on: UACC-62 melanoma
UO-31 renal = tested on: UO-31 renal

Cc1ccc(C(=O)CSc2nnc(-c3c[nH]c4ccccc34)n2-c2ccccc2)cc1
GI50 (786-0 renal): 14.7 µM | TGI (786-0 renal): 31.2 µM | GI50 (A498 renal): 22.1 µM | TGI (A498 renal): 69.4 µM | GI50 (A549 NSCLC): 13.9 µM | TGI (A549 NSCLC): 48.5 µM | GI50 (ACHN renal): 13.7 µM | TGI (ACHN renal): 29.2 µM | GI50 (BT-549 breast): 25.1 µM | TGI (BT-549 breast): 46.7 µM | GI50 (CAKI-1 renal): 14.9 µM | TGI (CAKI-1 renal): 29.8 µM | GI50 (CCRF-CEM leukemia): 54.4 µM | TGI (CCRF-CEM leukemia): > 100 µM | GI50 (COLO 205 colon): 34.4 µM | TGI (COLO 205 colon): > 100 µM | GI50 (DU-145 prostate): 44.3 µM | TGI (DU-145 prostate): > 100 µM | GI50 (EKVX NSCLC): 19 µM | TGI (EKVX NSCLC): 98.9 µM | GI50 (HCC-2998 colon): 20 µM | TGI (HCC-2998 colon): 51.7 µM | GI50 (HCT-116 colon): 18.7 µM | TGI (HCT-116 colon): 60.4 µM | GI50 (HCT-15 colon): 22.6 µM | TGI (HCT-15 colon): > 100 µM | GI50 (HL-60(TB) leukemia): 30.8 µM | TGI (HL-60(TB) leukemia): > 100 µM | GI50 (HOP-62 NSCLC): 16.1 µM | TGI (HOP-62 NSCLC): 35.9 µM | GI50 (HOP-92 NSCLC): 14.7 µM | TGI (HOP-92 NSCLC): 34.7 µM | GI50 (HS 578T breast): 14.1 µM | TGI (HS 578T breast): 56.3 µM | GI50 (HT29 colon): 15.6 µM | TGI (HT29 colon): 50.5 µM | GI50 (IGROV1 ovarian): 16.1 µM | TGI (IGROV1 ovarian): 31.3 µM | GI50 (K-562 leukemia): 22.1 µM | TGI (K-562 leukemia): > 100 µM | GI50 (KM12 colon): 36.1 µM | TGI (KM12 colon): > 100 µM | GI50 (LOX IMVI melanoma): 14.3 µM | TGI (LOX IMVI melanoma): 27.3 µM | GI50 (M14 melanoma): 32.1 µM | TGI (M14 melanoma): > 100 µM | GI50 (MALME-3M melanoma): 16.2 µM | TGI (MALME-3M melanoma): 36.2 µM | GI50 (MCF7 breast): 15.7 µM | TGI (MCF7 breast): 39.2 µM | GI50 (MDA-MB-231 breast): 15.4 µM | TGI (MDA-MB-231 breast): 32.6 µM | GI50 (MDA-MB-435): 22.8 µM | TGI (MDA-MB-435): 65.4 µM | GI50 (MDA-MB-468 breast): 12.8 µM | TGI (MDA-MB-468 breast): 32.3 µM | GI50 (MOLT-4 leukemia): 21.8 µM | TGI (MOLT-4 leukemia): > 100 µM | GI50 (NCI-H226 lung): 9.22 µM | TGI (NCI-H226 lung): 26.1 µM | GI50 (NCI-H23 lung): 13.7 µM | TGI (NCI-H23 lung): 27.5 µM | GI50 (NCI-H460 lung): 15.2 µM | TGI (NCI-H460 lung): 31 µM | GI50 (NCI-H522 lung): 16.3 µM | TGI (NCI-H522 lung): 43.7 µM | GI50 (NCI/ADR-RES ovarian): 11.9 µM | TGI (NCI/ADR-RES ovarian): 30.2 µM | GI50 (OVCAR-3 ovarian): 18 µM | TGI (OVCAR-3 ovarian): 43.3 µM | GI50 (OVCAR-4 ovarian): 14.5 µM | TGI (OVCAR-4 ovarian): 41.5 µM | GI50 (OVCAR-5 ovarian): 19.4 µM | TGI (OVCAR-5 ovarian): 37.2 µM | GI50 (OVCAR-8 ovarian): 24.5 µM | TGI (OVCAR-8 ovarian): > 100 µM | GI50 (PC-3 prostate): 12.4 µM | TGI (PC-3 prostate): 37.8 µM | GI50 (RPMI-8226 leukemia): 29.8 µM | TGI (RPMI-8226 leukemia): > 100 µM | GI50 (RXF 393 renal): 13.6 µM | TGI (RXF 393 renal): 28.9 µM | GI50 (SF-268 CNS): 24.2 µM | TGI (SF-268 CNS): 78.9 µM | GI50 (SF-295 CNS): 12.6 µM | TGI (SF-295 CNS): 25.9 µM | GI50 (SF-539 CNS): 15 µM | TGI (SF-539 CNS): 28.5 µM | GI50 (SK-MEL-2 melanoma): 30.2 µM | TGI (SK-MEL-2 melanoma): > 100 µM | GI50 (SK-MEL-28 melanoma): 19.6 µM | TGI (SK-MEL-28 melanoma): 52.1 µM | GI50 (SK-MEL-5 melanoma): 16.5 µM | TGI (SK-MEL-5 melanoma): 39.1 µM | GI50 (SK-OV-3 ovarian): 17 µM | TGI (SK-OV-3 ovarian): 33.1 µM | GI50 (SN12C renal): 19.4 µM | TGI (SN12C renal): 48.9 µM | GI50 (SNB-19 CNS): 15.8 µM | TGI (SNB-19 CNS): 34.5 µM | GI50 (SNB-75 CNS): 12.9 µM | TGI (SNB-75 CNS): 29.6 µM | GI50 (SR leukemia): 42 µM | TGI (SR leukemia): > 100 µM | GI50 (SW-620 colon): 30.3 µM | TGI (SW-620 colon): > 100 µM | GI50 (T-47D breast): 24.9 µM | TGI (T-47D breast): > 100 µM | GI50 (TK-10 renal): 23.2 µM | TGI (TK-10 renal): 44.4 µM | GI50 (U251 CNS): 23.6 µM | TGI (U251 CNS): 65.6 µM | GI50 (UACC-257 melanoma): 28.9 µM | TGI (UACC-257 melanoma): > 100 µM | GI50 (UACC-62 melanoma): 15.3 µM | TGI (UACC-62 melanoma): 38.1 µM | GI50 (UO-31 renal): 14.2 µM | TGI (UO-31 renal): 31.4 µM
